Results as given in patent US11352371B2, “Thienopyrimidine derivatives as ACC inhibitors and uses thereof” (Gilead Sciences, Inc., priority 2019, dated 2022).

How the values were obtained:
monkey hepatocytes = assay: In vitro hepatic uptake in monkey hepatocytes; assay type: in vitro ADME; settings: data not shown
Method: (§1) To further investigate the liver partitioning properties of the compound of Example 1, the compound was co-administered with rifampicin (RIF, pan-OATP inhibitor) in cynomolgus monkeys in vivo and hepatic uptake experiments were performed in monkey hepatocytes in vitro. […] Therefore the coadministration experiments as described below in more detail were conducted to administer Example 1 compound orally (5 mg/kg) in the absence and presence of IV administration of RIF (30 mg/kg).

OATP = assay: Liver partitioning / plasma PK study with and without rifampicin (pan-OATP inhibitor); assay type: in vivo, cynomolgus monkeys; settings: male, cynomolgus monkey, plasma, with rifampicin 30 mg/kg IV (pan-OATP inhibitor), cynomolgus monkeys, 5 mg/kg oral, Pretreatment with Rifampicin 30 mg/kg
Method: as §1
To assess the OATP (organic anion transporting polypeptides)-mediated liver specific delivery of the Example 1 compound, plasma pharmacokinetics (PK) was evaluated in cynomolgus monkeys. The in-life phase of the cyno PK studies was conducted at Covance Laboratories (Madison, Wis.). Animals were housed and handled in accordance with the Guide for the Care and Use of Laboratory Animals, Institute of Laboratory Animal Resources. The protocols were reviewed and approved by the Institutional Animal Care and Use Committees (IACUC). Male Cynomolgus monkeys weighing approximately 3 kg were used for the in-life portion of the PK studies. The animals were fasted overnight prior to dosing and up to 4 hours after dosing. The animals were administered with the test compound (Example 1) alone or coadministered with 30 mg/kg rifampicin prior to test compound administration at 5 mg/kg via oral gavage (3 monkeys per group). The aqueous formulation contains dimethyl sulfoxide, kolliphor, labrasol and propylene glycol. Approximately 0.5 mL blood samples were collected from each animal and analyzed for test compound (Example 1) concentrations. For LC-MS/MS analysis, plasma samples were prepared through protein precipitation extraction and analyzed on a Sciex API 5500 LC-MS/MS instrument (Applied Biosystems, Foster City, Calif.). Analyte was eluted on a 1.7 μm 50×2.1 mm Acquity UPLC BEH C18 column (Waters, Milford, Mass.) using mobile phases containing 0.1% formic acid and a linear gradient from 60% to 95% acetonitrile at a flow rate of 800 μL/min. Noncompartmental pharmacokinetic parameters were calculated using Phoenix 32 (Pharsight Corporation, Mountain View, Calif.). […]

[1] = Preliminary study of systemic blood clearance after intravenous administration; assay type: in vivo; settings: monkeys, preliminary studies
[2] = system: De Novo Lipogenesis (DNL) in liver; assay: In vivo De Novo Lipogenesis study; parameters: species or system Male Sprague Dawley (SD) rats; settings: Rattus norvegicus; male SD rats, single p.o. dose, acetate i.p. 3h post-dose, livers collected 1h later; read-out: effective dose that decreased in vivo DNL by 50% (ED50)
Method: The DNL inhibitory activity of the compound of Example 1 was assessed in vivo as follows.
The studies were performed at Covance Laboratories (Madison, Wis.) in compliance with Institutional Animal Care and Use Committee protocols. Male Sprague Dawley (SD) rats were purchased from Envigo RMS, INC and were acclimatized for 7 days prior to study initiation. Animals were provided ad libitum access to food and water for the duration of the study. On the day of the experiment, animals were randomized into dose groups (n=6 rats/group) based on body weight and received a single p.o dose of vehicle (0.1% Tween 80 in water, pH 7.5-8.0) or a dose range of the compound of Example 1 (0.1 μg/kg-1 mg/kg). 3h post-dose (Example 1), the animals received a single i.p bolus of […] (Perkin Elmer, 32 μCi/animal) and were sacrificed 1h later, and livers were collected for DNL analysis. An approx. 0.75 g piece of liver was saponified at 70° C. for 120 min in 1.5 mL of 2.5M NaOH followed by addition of 2.5 mL of ethanol, vigorous mixing. […] Residual ether fractions were dissolved in at least 5 mL of Ultima Gold XR scintillation fluid and analyzed by liquid scintillation counting (LSC). The resulting dpm ([…]) values were normalized to tissue weight and the data were expressed as a percent of vehicle. […]

[3] = Rat liver/plasma ratio determination; assay type: in vivo, male Sprague-Dawley (SD) rats; settings: male SD rats, single oral dose 5 mg/kg or 10 mg/kg
Method: Liver to plasma (L/P) ratios of certain example compounds were determined in male Sprague-Dawley (SD) rats 2 hours and 24 hours after their administration.
The in vivo phases of the rat L/P ratio determinations for example compounds were conducted at Covance Laboratories (Madison, Wis.) or Charles River Laboratories (Worcester, Wash.). Animals were housed and handled in accordance with the Guide for the Care and Use of Laboratory Animals, Institute of Laboratory Animal Resources. The protocols were reviewed and approved by Institutional Animal Care and Use Committees (IACUC). Male Sprague-Dawley (SD) rats weighing approximately 300 g were fasted overnight prior to dosing and up to 4 hours after dosing. Each example compound was dosed at a single dose at 5 mg/kg or 10 mg/kg orally by gavage to male SD rats (n=3 rats/group). The aqueous formulation contained ethyl alcohol and polyethylene glycol 300. Approximately 100 μL plasma and 0.5 g liver samples were collected from each animal either 2 hours or 24 hours after dosing. The liver samples were homogenized by hard tissue homogenizer probes (Omni International, Kennesaw, Ga.) with 4× extraction buffer. For LC-MS/MS analysis, plasma and liver samples were prepared through protein precipitation extraction and analyzed on a Scitex API 5500 or 6500 LC-MS/MS instrument (Applied Biosystems, Foster City, Calif.). Analyte was eluted on a 1.7 μm 50×2.1 mm Acquity UPLC BEH C18 column (Waters, Milford, Mass.) using mobile phase containing 0.1% formic acid and a linear gradient from 55% to 95% acetonitrile at a flow rate of 800 μL/min. A liver/plasma ratio for each compound was calculated using the liver and plasma concentrations at the corresponding time point (2 hours or 24 hours). Noncompartmental pharmacokinetic parameters were calculated using Phoenix 32 (Pharsight Corporation, Mountain View, Calif.).
To assess the liver loading potential of the compounds, rat liver/plasma ratios (Rat L/P Ratio) values were determined for example compounds and are listed below in Table 1 for 2 hour and 24 hour timepoints (Rat L/P Ratio (2h/24h)).

COc1ccccc1[C@H](Cn1c(=O)n(C(C)(C)C(=O)NS(=O)(=O)C2(C)CC2)c(=O)c2c(C)c(-c3ncco3)sc21)O[C@@H]1C[C@H]2CC[C@@H](C1)O2 [Example 1, 2-(1-((R)-2-(((1R,3s,5S)-8-oxabicyclo[3.2.1]octan-3-yl)oxy)-2-(2-methoxyphenyl)ethyl)-5-methyl-6-(oxazol-2-yl)-2,4-dioxo-1,4-dihydrothieno[2,3-d]pyrimidin-3(2H)-yl)-2-methyl-N-((1-methylcyclopropyl)sulfonyl)propanamide]
hepatic uptake (monkey hepatocytes): strong hepatic uptake | AUC (OATP): 48.5 µM·h | CL/F (OATP): 2.5 mL/min/kg | Cmax (OATP): 14 µM | Vd/F (OATP; read-out: Vz/F): 0.44 L/kg | systemic blood clearance [1]: higher than hepatic blood flow | ED50 [2]: 0.08 mg/kg | L/P Ratio (2 h) ([3]; liver to plasma concentration 2 hours after dosing): 520 | L/P Ratio (24 h) ([3]; liver to plasma concentration 24 hours after dosing): 1526
